Assay [1] has as its target Glycogen synthase kinase-3 beta (Homo sapiens, UniProt P49841). In words: TR-FRET Assay. A digest of the protocol:
(§1)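 Kinase activity, measured after a 30-minute compound preincubation, was stopped with EDTA and quantified by TR-FRET using a Tb-labelled pSer641 antibody paired with streptavidin-d2.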
For orientation: TR-FRET usually uses a lanthanide donor and a delayed reading to cut background.

Assay [2] has as its target Glycogen synthase kinase-3 alpha (Homo sapiens, UniProt P49840). In words: TR-FRET Assay. The gist of the method:
as §1

Where “and” joins values, the source holds several entries; their conditions need not be identical. Identical values can stand only once.

Chain of Glycogen synthase kinase-3 beta (P49841 whole entry): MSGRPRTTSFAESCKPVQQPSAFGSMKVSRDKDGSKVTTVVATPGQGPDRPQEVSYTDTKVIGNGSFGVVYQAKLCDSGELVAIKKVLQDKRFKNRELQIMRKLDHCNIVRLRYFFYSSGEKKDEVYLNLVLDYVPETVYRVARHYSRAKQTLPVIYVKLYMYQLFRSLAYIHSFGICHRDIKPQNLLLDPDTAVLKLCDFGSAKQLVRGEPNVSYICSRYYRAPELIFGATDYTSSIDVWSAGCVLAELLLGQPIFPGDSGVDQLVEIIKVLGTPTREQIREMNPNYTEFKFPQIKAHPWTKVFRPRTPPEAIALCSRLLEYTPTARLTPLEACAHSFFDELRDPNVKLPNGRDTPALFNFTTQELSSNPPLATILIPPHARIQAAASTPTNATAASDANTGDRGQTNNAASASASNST
Chain of Glycogen synthase kinase-3 alpha (P49840 whole entry): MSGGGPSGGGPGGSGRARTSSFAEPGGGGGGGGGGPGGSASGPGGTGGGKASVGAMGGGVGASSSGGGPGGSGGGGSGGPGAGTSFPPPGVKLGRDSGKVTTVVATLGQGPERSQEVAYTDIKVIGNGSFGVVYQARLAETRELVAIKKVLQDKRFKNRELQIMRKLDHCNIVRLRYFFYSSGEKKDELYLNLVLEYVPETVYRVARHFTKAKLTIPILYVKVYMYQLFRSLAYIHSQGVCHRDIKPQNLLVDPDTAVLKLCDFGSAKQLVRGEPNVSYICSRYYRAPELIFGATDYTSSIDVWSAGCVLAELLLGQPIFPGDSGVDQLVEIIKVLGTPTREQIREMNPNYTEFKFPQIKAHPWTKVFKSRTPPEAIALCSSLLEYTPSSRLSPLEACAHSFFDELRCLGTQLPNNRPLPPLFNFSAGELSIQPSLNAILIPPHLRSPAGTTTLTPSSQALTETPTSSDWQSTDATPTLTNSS

The IC50 is the concentration needed to halve the response being measured. Low values mean greater potency in that assay, high ones weaker potency in that assay. As to `CC[C@@]1(c2cccc(N(C)c3cc(C)ccn3)c2)C2=CN=NC2NC2=C1C(=O)CC(C)(C)C2` (stereo not given in full) [US20250313563, Compound 945609], the IC50 in assay [1] was 100 to 1000 nM; in assay [2] it was less than 100 nM.
The like results for `CC[C@@]1(c2cccc(N(C)c3cc(C)cc(C)n3)c2)C2=CN=NC2NC2=C1C(=O)CC(C)(C)C2` (stereo not given in full) [US20250313563, Compound 945610] were, in that order, 100 to 1000 nM and less than 100 nM.
For `CC[C@]1(c2cccc(-c3cnn(C)c3)c2)C2=C(CC(C)(C)NC2=O)NC2N=NC(C)=C21` (stereo not given in full) [US20250313563, Compound 945611], the IC50 in assay [1] and in assay [2] was more than 5000 nM throughout.
Consider `CC[C@@]1(c2cccc(-c3cnc(C)n3C)c2)C2=CN=NC2NC2=C1C(=O)CC(C)(C)C2` (stereo not given in full) [US20250313563, Compound 945612], for which the concentration for half-maximal inhibition (IC50) in assay [1] was more than 5000 nM; in assay [2], 1000 to 5000 nM.
As to `CC[C@]1(c2cccc(-c3cnc(C)n3C)c2)C2=CN=NC2NC2=C1C(=O)CC(C)(C)C2` (stereo not given in full) [US20250313563, Compound 945613], the half-maximal inhibitory concentration (IC50) in assay [1] is < 100 nM and 1000 to 5000 nM; in assay [2], < 100 nM and 100 to 1000 nM.
Consider `CC[C@@]1(c2cccc(-c3cnn(C)c3)c2)C2=C(CC(C)(C)NC2=O)NC2N=NC(C)=C21` (stereo not given in full) [US20250313563, Compound 945614], for which the IC50 was 100 to 1000 nM and 1000 to 5000 nM in assay [1]; 100 to 1000 nM in assay [2].
As to `CC[C@]1(c2cccc(CN(C)c3cc(C)cc(C)n3)c2)C2=CN=NC2NC2=C1C(=O)CC(C)(C)C2` (stereo not given in full) [US20250313563, Compound 945615], the IC50 in assay [1] and in assay [2] was more than 5000 nM each time.
With `CC[C@]1(c2cccc(N(C)c3cc(C)ccn3)c2)C2=CN=NC2NC2=C1C(=O)CC(C)(C)C2` (stereo not given in full) [US20250313563, Compound 945616], the IC50 in assay [1] and in assay [2] was more than 5000 nM each time.
Consider `CC[C@]1(c2cccc(-c3cnn(C)c3C)c2)C2=CN=NC2NC2=C1C(=O)NC(C)(C)C2` (stereo not given in full) [US20250313563, Compound 945617], for which the results for the IC50 in assay [1] and in assay [2] were more than 5000 nM and 1000 to 5000 nM, respectively.
The like results for `CC[C@]1(c2cccc(-c3cnc4n3CCCC4)c2)C2=CN=NC2NC2=C1C(=O)CC(C)(C)C2` (stereo not given in full) [US20250313563, Compound 945618] were, in that order, more than 5000 nM and 1000 to 5000 nM.
For `CC[C@]1(c2cccc(-c3ccnc4c3CCC4)c2)C2=CN=NC2NC2=C1C(=O)CC(C)(C)C2` (stereo not given in full) [US20250313563, Compound 945619] the same measures were more than 5000 nM and 1000 to 5000 nM.
As to `CC[C@]1(c2cccc(-c3cncn3C)c2)C2=CN=NC2NC2=C1C(=O)CC(C)(C)C2` (stereo not given in full) [US20250313563, Compound 945620], the results for the IC50 in assay [1] and in assay [2] were 1000 to 5000 nM and 100 to 1000 nM, respectively.
The like results for `CC[C@]1(c2cccc(S(C)(=O)=O)c2)C2=CN=NC2NC2=C1C(=O)NC(C)(C)C2` (stereo not given in full) [US20250313563, Compound 945621] were, in that order, more than 5000 nM and 1000 to 5000 nM.
For `CC[C@]1(c2cccc(C(F)(F)F)c2)C2=CN=NC2NC2=C1C(=O)N(C(C)(C)C)CC2` (stereo not given in full) [US20250313563, Compound 945633] the same measures were more than 5000 nM and more than 5000 nM.
The like results for `CC[C@@]1(c2cccc(C(F)(F)F)c2)C2=CN=NC2NC2=C1C(=O)N(C(C)(C)C)CC2` (stereo not given in full) [US20250313563, Compound 945634] were, in that order, more than 5000 nM and 1000 to 5000 nM.
On to `CCC1(c2cccc(C(F)(F)F)c2)C2=CN=NC2NC2=C1C(=O)NC(C(C)(C)C)C2` (stereo not given) [US20250313563, Compound 945635], for which the IC50 in assay [1] is 100 to 1000 nM; in assay [2], less than 100 nM.
As for `CCC1(c2cccc(C(F)(F)F)c2)C2=CN=NC2NC2=C1C(=O)N(c1cccnc1)CC2` (stereo not given) [US20250313563, Compound 945637], the concentration for half-maximal inhibition (IC50) in assay [1] was 100 to 1000 nM; in assay [2], less than 100 nM.
For `CC1(C)CC(=O)C2=C(C1)NC1=C(CN=N1)C21CCN(S(=O)(=O)c2ccccc2Cl)CC1` [US20250313563, Compound 945655] the same measures were less than 100 nM and less than 100 nM.
As to `COc1cccc(S(=O)(=O)N2CCC3(CC2)C2=C(N=NC2)NC2=C3C(=O)CC(C)(C)C2)c1F` [US20250313563, Compound 945656], the IC50 in assay [1] is < 100 nM and 100 to 1000 nM; in assay [2], less than 100 nM.
For the compound `CC1(C)CC(=O)C2=C(C1)NC1=C(CN=N1)C21CCN(S(=O)(=O)c2ccccc2C(F)F)CC1` [US20250313563, Compound 945657], the 50% inhibitory concentration (IC50) in assay [1] is 100 to 1000 nM and 1000 to 5000 nM; in assay [2], < 100 nM and 100 to 1000 nM.
Turning to `Cc1cnn(C)c1S(=O)(=O)N1CCC2(CC1)C1=C(N=NC1)NC1=C2C(=O)CC(C)(C)C1` [US20250313563, Compound 945658], the values for the IC50 in assay [1] and in assay [2] were 1000 to 5000 nM and 100 to 1000 nM, respectively.
The like results for `CN(C)C(=O)c1ccc(S(=O)(=O)N2CCC3(CC2)C2=C(N=NC2)NC2=C3C(=O)CC(C)(C)C2)cc1` [US20250313563, Compound 945659] were, in that order, less than 100 nM and less than 100 nM.
The like results for `CC1(C)CC(=O)C2=C(C1)NC1=C(CN=N1)C21CCN(S(=O)(=O)c2ccc(Cl)c(Cl)c2)CC1` [US20250313563, Compound 945660] were, in that order, less than 100 nM and less than 100 nM.
Regarding `CC1(C)CC(=O)C2=C(C1)NC1=C(CN=N1)C21CCN(S(=O)(=O)c2ccc(Cl)cc2)CC1` [US20250313563, Compound 945661], the IC50 in assay [1] and in assay [2] was less than 100 nM each time.
For `COc1ccc(S(=O)(=O)N2CCC3(CC2)C2=C(N=NC2)NC2=C3C(=O)CC(C)(C)C2)c(C)c1C` [US20250313563, Compound 945662], the concentration for half-maximal inhibition (IC50) in assay [1] was 100 to 1000 nM; in assay [2] it was less than 100 nM.
For `CC(C)c1nc(S(=O)(=O)N2CCC3(CC2)C2=C(N=NC2)NC2=C3C(=O)CC(C)(C)C2)cn1C` [US20250313563, Compound 945663] the same measures were less than 100 nM and less than 100 nM.
Take `CCn1nccc1S(=O)(=O)N1CCC2(CC1)C1=C(N=NC1)NC1=C2C(=O)CC(C)(C)C1` [US20250313563, Compound 945664]: the IC50 in assay [1] and in assay [2] was less than 100 nM each time.
`COc1ccc(F)c(S(=O)(=O)N2CCC3(CC2)C2=C(N=NC2)NC2=C3C(=O)CC(C)(C)C2)c1` [US20250313563, Compound 945665]: the concentration for half-maximal inhibition (IC50) in assay [1] and in assay [2] was less than 100 nM each time.
With `COc1ccc(S(=O)(=O)N2CCC3(CC2)C2=C(N=NC2)NC2=C3C(=O)CC(C)(C)C2)cn1` [US20250313563, Compound 945666], the half-maximal inhibitory concentration (IC50) in assay [1] and in assay [2] was less than 100 nM in each case.
On to `CC1(C)CC(=O)C2=C(C1)NC1=C(CN=N1)C21CCN(S(=O)(=O)c2ccccc2C(F)(F)F)CC1` [US20250313563, Compound 945667], for which the figures for the half-maximal inhibitory concentration (IC50) in assay [1] and in assay [2] were 100 to 1000 nM and less than 100 nM, respectively.
In the case of `CC1(C)CC(=O)C2=C(C1)NC1=C(CN=N1)C21CCN(S(=O)(=O)c2ccccc2OC(F)F)CC1` [US20250313563, Compound 945668], the IC50 is < 100 nM and 100 to 1000 nM in assay [1]; less than 100 nM in assay [2].
For `COc1cc(S(=O)(=O)N2CCC3(CC2)C2=C(N=NC2)NC2=C3C(=O)CC(C)(C)C2)ccc1Cl` [US20250313563, Compound 945669], the IC50 in assay [1] and in assay [2] was less than 100 nM each time.
In the case of `CCOc1ccc(S(=O)(=O)N2CCC3(CC2)C2=C(N=NC2)NC2=C3C(=O)CC(C)(C)C2)cc1` [US20250313563, Compound 945670], the 50% inhibitory concentration (IC50) in assay [1] is < 100 nM and 1000 to 5000 nM; in assay [2] it was < 100 nM and 100 to 1000 nM.
On to `CCn1ccc(S(=O)(=O)N2CCC3(CC2)C2=C(N=NC2)NC2=C3C(=O)CC(C)(C)C2)n1` [US20250313563, Compound 945671], for which the IC50 in assay [1] and in assay [2] was less than 100 nM throughout.
Regarding `Cc1ccc(S(=O)(=O)N2CCC3(CC2)C2=C(N=NC2)NC2=C3C(=O)CC(C)(C)C2)s1` [US20250313563, Compound 945672], the half-maximal inhibitory concentration (IC50) is < 100 nM and 100 to 1000 nM in assay [1]; < 100 nM and 100 to 1000 nM in assay [2].
On to `CC(C)Oc1ccc(S(=O)(=O)N2CCC3(CC2)C2=C(N=NC2)NC2=C3C(=O)CC(C)(C)C2)cc1` [US20250313563, Compound 945673], for which the concentration for half-maximal inhibition (IC50) in assay [1] and in assay [2] was less than 100 nM throughout.
With `Cc1cc(S(=O)(=O)N2CCC3(CC2)C2=C(N=NC2)NC2=C3C(=O)CC(C)(C)C2)c(C)s1` [US20250313563, Compound 945674], the values for the half-maximal inhibitory concentration (IC50) in assay [1] and in assay [2] were 100 to 1000 nM and less than 100 nM, respectively.
The like results for `CC(C)Oc1ccc(S(=O)(=O)N2CCC3(CC2)C2=C(N=NC2)NC2=C3C(=O)CC(C)(C)C2)cn1` [US20250313563, Compound 945676] were, in that order, less than 100 nM and less than 100 nM.
For `CC1(C)CC(=O)C2=C(C1)NC1=C(CN=N1)C21CCN(S(=O)(=O)c2cnn(C(C)(C)C)c2)CC1` [US20250313563, Compound 945677] the same measures were 100 to 1000 nM and less than 100 nM.
Consider `Cc1cc(S(=O)(=O)N2CCC3(CC2)C2=C(N=NC2)NC2=C3C(=O)CC(C)(C)C2)ccc1OC(C)C` [US20250313563, Compound 945678], for which the half-maximal inhibitory concentration (IC50) was 100 to 1000 nM in assay [1] and less than 100 nM in assay [2].
The like results for `CCn1nc(C)c(S(=O)(=O)N2CCC3(CC2)C2=C(N=NC2)NC2=C3C(=O)CC(C)(C)C2)c1C` [US20250313563, Compound 945679] were, in that order, 1000 to 5000 nM and 100 to 1000 nM.
The like results for `COc1ccc(S(=O)(=O)N2CCC3(CC2)C2=C(N=NC2)NC2=C3C(=O)CC(C)(C)C2)cc1C` [US20250313563, Compound 945680] were, in that order, less than 100 nM and less than 100 nM.
The like results for `CCC1(c2cccc(-c3c(C)cncc3C)c2)C2=CN=NC2NC2=C1C(=O)CC(C)(C)C2` (stereo not given) [US20250313563, Compound 945703] were, in that order, less than 100 nM and less than 100 nM.
Consider `CCC1(c2cccc(-c3c(F)cncc3OC)c2)C2=CN=NC2NC2=C1C(=O)CC(C)(C)C2` (stereo not given) [US20250313563, Compound 945704], for which the IC50 in assay [1] is < 100 nM and 100 to 1000 nM; in assay [2], less than 100 nM.
Take `CC[C@@]1(c2cccc(C(F)F)c2)C2=C(CC(C)(C)CC2=O)NC2N=NC(C(F)(F)F)=C21` (stereo not given in full) [US20250313563, Compound 945708]: the half-inhibitory concentration (IC50) in assay [1] was 100 to 1000 nM; in assay [2] it was less than 100 nM.

The values are drawn from BindingDB's records for patent US20250313563 (The Broad Institute, 2025).
